Where two headings read alike, the source gives them in different places.
Legend:
A-498 xenografts = experiment: A-498 xenograft model, intermittent sunitinib dosing (3 weeks on, 3 weeks off)
RCC cell lines = experiment: cells; conditions: Homo sapiens
SN12C xenografts = experiment: SN12C xenograft model, intermittent sunitinib dosing (3 weeks on, 3 weeks off)
HUVEC and HLMVEC cells = experiment: cells; conditions: Homo sapiens
[1] = 40 mg/kg, 3-weeks-on and 3-weeks-off
[2] = preliminary studies (data not shown)

## CCN(CC)CCNC(=O)c1c(C)[nH]c(/C=C2\C(=O)Nc3ccc(F)cc32)c1C [SU11248, sunitinib]
A-498 xenografts; [1]
  treated A-498 xenograft mice showing phenotypic resistance: 38%
  treated A-498 xenograft mice showing phenotypic resistance (resistant/treated): 13/34
A-498 xenografts; [2]
  minimal required dosage to induce stable disease: 40 mg/kg
RCC cell lines; read-out: IC50 on proliferation of RCC cell lines, similar under both conditions: normal culture/complete medium and ligand-dependent/PDGF-only
  IC50: 4 to 10 µM
RCC cell lines; read-out: IC50 on proliferation of RCC cells, complete medium
  IC50: 4 to 10 µM
RCC cell lines; read-out: IC50 on proliferation of RCC cells, ligand-dependent condition
  IC50: 2 to 6 µM
SN12C xenografts; 80 mg/kg, 3-weeks-on and 3-weeks-off
  treated SN12C xenograft mice showing phenotypic resistance: 33%
SN12C xenografts; [2]
  minimal required dosage to induce stable disease: 80 mg/kg
HUVEC and HLMVEC cells; read-out: IC50 on proliferation of endothelial cell lines
  IC50: ~0.01 µM
HUVEC and HLMVEC cells; read-out: IC50 on proliferation of endothelial cells
  IC50: ~6 µM

— patent US8133686B2 (Van Andel Research Institute, priority 2008, dated 2012)
